Values joined by “and” are separate entries in the source; they are usually repeats but may differ in a detail not shown here. Equal entries are not always repeated. “Also recorded” adds a separate entry of the source. Where two headings read alike, the source gives them in different places. Where no end group is shown, it is not given here.
Experiments:
MDV strain RB1B [1] = settings: cited from earlier work; for IC50: MDV plaque formation, previous study, read-out: 50% inhibitory concentration (IC50), plaque formation
Source text: Our previous study reported that both glycoproteins gB and gH of the herpesvirus Marek's disease virus (MDV) contain eleven potential heptad repeat domains. […] HR1 and HR2 can form of a six-helix bundle structure, which is known as the virus fusion central core and is believed to bring the viral and cellular membranes closer together. […] This observation is in contrast with our results with MDV and other herpesviruses, [29], [33], in which three N-terminal HRs show ...

[2] = individual peptides; previous study; cited from earlier work
Source text: In addition, the gBH1 peptide forms a homotrimeric structure with a molecular weight of 10.7 kDa. gHH3 adopts a monomer formation with a molecular weight of 3.8 kDa, and gHH1 forms a homotetramer with a molecular weight of approximately 12.1 kDa. Gel filtration was used to confirm the interactions between peptides. […] As show ...

[3] = molecular target: gH-derived HR3 peptide (gHH3) (Marek's disease virus strain RB1B); experiment: SEC
[4] = molecular target: gH-derived HR3 peptide (gHH3) (Marek's disease virus strain RB1B)
[5] = molecular target: gH-derived HR3 peptide (gHH3) (Marek's disease virus strain RB1B); experiment: SEC; remark: listed apart in the source
MDV strain RB1B [6] = format: cell-based, Marek's disease virus; settings: for IC50: plaque formation, CEF cells, co-treatment: 100 pfu MDV incubated with peptide 2 hrs at 37°C, then 5 days in DMEM 2% FBS, triplicate, means ± SD, read-out: antiviral activity IC50; for virucidal activity (in words): virus pre-treatment: virus incubated with peptide at 25 μM for 1 hr at 37°C, then titrated on cell monolayers
Protocol: Primary chicken embryo fibroblasts (CEFs) were cultured as previously described. CEF-associated MDV strain RB1B,which was obtained from the Shandong Agriculture University and passaged multiple times in primary CEFs was incubated for 2 hrs at 37°C. Following incubation, the virus inoculum on the cells was replaced with DMEM supplemented with 2% FBS, and the cultures were incubated for another 5 days longer Consistent and uniform plaques were observed and counted using an Olympus microscope, and images were captured using DP Controller. CEF-associated MDV from the same passage at 2×10^4 plaque forming units (pfu) was used in both infectivity assays in this study.
All peptides were dissolved in DMEM without FBS and used at a range of concentrations. For the antiviral activities of peptides in the co-treatment assay, 100 pfu of MDV was incubated with the peptide at different concentrations for 2 hrs at 37°C. Following incubation, the virus-peptide mixtures on the cells were replaced with DMEM supplemented with 2% FBS, and the cultures were incubated for 5 days. At the end of this period, 50% inhibitory concentrations (IC50) values were calculated. […] For all treatments, unpenetrated virus was inactivated in a low pH buffer after the 45 min incubation with cells at 37°C. The monolayers were incubated for 5 days at 37°C in DMEM supplemented with 2% FBS. The ratio of plaque counts to the no peptide sample control is reported as the percentage of plaque formation (by arithmetic conversion of the mean percent plaque formation). The results are expressed as the average of triplicates ± the standard deviation, and all experiments were performed in parallel with each peptide and a non-specific peptide (i.e., scramble).

[7] = molecular target: gB-derived HR1 peptide (gBH1) (Marek's disease virus strain RB1B); experiment: SEC
Chain of gB-derived HR1 peptide (gBH1) (Marek's disease virus strain RB1B) (P18538 340-367 limits assumed): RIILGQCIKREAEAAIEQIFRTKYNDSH

Row | Compound | IC50 (MDV strain RB1B [1]) [µM] | Molecular mass of individual peptide in solution by gel filtration [2] | Molecular state of individual peptide [2] | IC50 (MDV strain RB1B [6]) [µM] | further results
1 | CC[C@H](C)[C@H](NC(=O)[C@H](C)NC(=O)[C@H](C)NC(=O)[C@H](CCC(=O)O)NC(=O)[C@H](C)NC(=O)[C@H](CCC(=O)O)NC(=O)[C@H](CCCNC(=N)N)NC(=O)[C@H](CCCCN)NC(=O)[C@@H](NC(=O)[C@H](CS)NC(=O)[C@H](CCC(N)=O)NC(=O)CNC(=O)[C@H](CC(C)C)NC(=O)[C@@H](NC(=O)[C@@H](NC(=O)[C@@H](N)CCCNC(=N)N)[C@@H](C)CC)[C@@H](C)CC)[C@@H](C)CC)C(=O)N[C@@H](CCC(=O)O)C(=O)N[C@@H](CCC(N)=O)C(=O)N[C@H](C(=O)N[C@@H](Cc1ccccc1)C(=O)N[C@@H](CCCNC(=N)N)C(=O)N[C@H](C(=O)N[C@@H](CCCCN)C(=O)N[C@@H](Cc1ccc(O)cc1)C(=O)N[C@@H](CC(N)=O)C(=O)N[C@@H](CC(=O)O)C(=O)N[C@@H](CO)C(=O)N[C@@H](Cc1c[nH]cn1)C(=O)O)[C@@H](C)O)[C@@H](C)CC [gBH1] | < 12 | 10.7 kDa | homotrimeric; also recorded: Trimer |  | 
2 | gB-derived HR1 peptide (gBH1) |  |  |  |  | stoichiometry N [3]: 3; antiviral activity IC50 (plaque formation, MDV on CEF cells) of the mixture of the three peptides gHH1+gHH3+gBH1, the same level as gHH1 alone [4]: 4.7 µM; stoichiometry N [5]: 1
3 | HMNASDMEIKSYINMIESVEESSNYDF [gHH1] | < 12 | approximately 12.1 kDa and 12.1 kDa | homotetramer; also recorded: Tetramer | 4.1 ± 0.26 | virucidal activity (in words) (MDV strain RB1B [6]): no or low virucidal activity; blocking of viral infection in co-treatment and post-treatment assays (in words) (MDV strain RB1B [1]; virus co-treatment (co) and post-treatment (post)): blocked viral infection
4 | EERKKLGEEIKKEAEEAKKQIEETKKNDEE [gHB1-EK] |  |  |  | 8.7 ± 1.29 | 
5 | gH-derived HR1 peptide (gHH1) |  |  |  |  | stoichiometry N [3]: 1; stoichiometry N [5]: 3; stoichiometry N [7]: 1
6 | KKNEEIIKKLEEKTKKNEEKNKKSEEILKKLEELRKK [gHH3-EK] |  |  |  | 6.3 ± 1.16 | 
7 | NADIIKSLIRKTIINASKNTASLSILQHLYVLRS [gHH3] | < 12 | 3.8 kDa | Monomer | 12.2 ± 0.28 | virucidal activity (in words) (MDV strain RB1B [6]): no or low virucidal activity
